Measured values reported in patent US20110182982A1, “LIPOSOME TREATMENT OF VIRAL INFECTIONS” (University of Oxford, priority 2006, published 2011).

Legend:
Experiment in all cases: p24 secretion of HIV-1-infected PBMCs
Format in all cases: cell-based
Conditions in all cases: for % p24 secretion Week 1-rb / % p24 secretion Week 2-rb / % p24 secretion Week 3-rb / % p24 secretion Week 4-rb: treatment removed 2 weeks
[1] = test system: HIV-1 isolate: BR93020
Description: (§1) Clearance of HIV-1 primary isolates from infected human cells by NB-DNJ was assessed using phytohemagglutinin (PHA)-activated peripheral blood mononuclear cells (PBMCs) as indicator cells and the determination of p24 antigen production as the end point.
(§2) PBMCs from four normal (uninfected) donors were isolated, pooled, and stimulated with PHA (5 μg/ml) for 48 h followed by PHA plus interleukin-2 (40 U/ml) for 72 h in RPMI 1640 medium containing 10% heat-inactivated fetal bovine serum (FBS), 100 U of penicillin per ml, 100 μg of streptomycin per ml, and 2 mM L-glutamine. All experiments were performed in 96-well microtiter plates. To infect cells, 100 μl of PHA-activated PBMCs (5×10^5/ml) was added to each well, after which an equal volume containing 100 50% tissue culture infective doses (TCID50) of primary isolate stock was added. After an overnight incubation, the cells were washed three times with tissue culture medium, and finally re-suspended in medium containing the appropriate liposome treatment or free NB-DNJ. On day 7, approximately 10-30% of the culture volume containing secreted HIV-1 virions was used to infect naïve PBMCs for a second round of infection and treatment (volume transferred was calculated to be the volume necessary for the untreated control of that isolate to infect naïve cells at a TCID50=100). Rounds of treatment and infection of naïve cells were continued over four weeks, and at every time point cellular supernatant containing secreted virions was isolated and used in capture ELISAs to determine p24 concentration (measure of secretion). Additionally, supernatant isolated at each time point throughout treatment was used to infect naïve PBMCs (TCID50=100) for two weeks with no further treatment, which allowed for the observation of a rebound in viral activity.
(§3) PBMCs infected with 8 primary isolates (listed in Table 3) were incubated in the presence of free NB-DNJ (concentrations ranging 0-1 mM) or liposome-encapsulated NB-DNJ (0-3.75 μM, final lipid concentration of 50 μM).

[2] = test system: HIV-1 isolate: HT92599
Description: as §1, §2, §3

[3] = test system: HIV-1 isolate: 89.6
Description: as §1, §2, §3

[4] = test system: HIV-1 isolate: UG92021
Description: as §1, §2, §3

[5] = Human immunodeficiency virus 1, PBMC, free, three rounds of treatment
[6] = 1 mM free in medium, first week

Compound: CCCCN1C[C@H](O)[C@@H](O)[C@H](O)[C@H]1CO [NB-DNJ, N-butyl-1,5-dideoxy-1,5-imino-D-glucitol]
- IC50 [1, 5]: 250 µM
- IC90 [1, 5]: 375 µM
- % p24 secretion Week 1 ([1]; NB-DNJ 250 uM): 89%
- % p24 secretion Week 2 ([1]; NB-DNJ 250 uM): 74%
- % p24 secretion Week 3 ([1]; NB-DNJ 250 uM): 53%
- % p24 secretion Week 4 ([1]; NB-DNJ 250 uM): 55%
- % p24 secretion Week 1-rb ([1]; NB-DNJ 250 uM): 97%
- % p24 secretion Week 2-rb ([1]; NB-DNJ 250 uM): 77%
- % p24 secretion Week 3-rb ([1]; NB-DNJ 250 uM): 71%
- % p24 secretion Week 4-rb ([1]; NB-DNJ 250 uM): 59%
- % p24 secretion Week 1 ([1]; NB-DNJ 500 uM): 60%
- % p24 secretion Week 2 ([1]; NB-DNJ 500 uM): 19%
- % p24 secretion Week 3 ([1]; NB-DNJ 500 uM): 1%
- % p24 secretion Week 4 ([1]; NB-DNJ 500 uM): 1%
- % p24 secretion Week 1-rb ([1]; NB-DNJ 500 uM): 68%
- % p24 secretion Week 2-rb ([1]; NB-DNJ 500 uM): 3%
- % p24 secretion Week 3-rb ([1]; NB-DNJ 500 uM): 0%
- % p24 secretion Week 4-rb ([1]; NB-DNJ 500 uM): 1%
- % p24 secretion Week 1 ([1]; NB-DNJ 1000 uM): 58%
- % p24 secretion Week 2 ([1]; NB-DNJ 1000 uM): 2%
- % p24 secretion Week 3 ([1]; NB-DNJ 1000 uM): 0%
- % p24 secretion Week 4 ([1]; NB-DNJ 1000 uM): 0%
- % p24 secretion Week 1-rb ([1]; NB-DNJ 1000 uM): 44%
- % p24 secretion Week 2-rb ([1]; NB-DNJ 1000 uM): 0%
- % p24 secretion Week 3-rb ([1]; NB-DNJ 1000 uM): 0%
- % p24 secretion Week 4-rb ([1]; NB-DNJ 1000 uM): 0%
- reduction in viral secretion [2, 6]: 50%
- % p24 secretion Week 1 ([2]; NB-DNJ 250 uM): 99%
- % p24 secretion Week 2 ([2]; NB-DNJ 250 uM): 84%
- % p24 secretion Week 3 ([2]; NB-DNJ 250 uM): 88%
- % p24 secretion Week 4 ([2]; NB-DNJ 250 uM): 81%
- % p24 secretion Week 1-rb ([2]; NB-DNJ 250 uM): 93%
- % p24 secretion Week 2-rb ([2]; NB-DNJ 250 uM): 99%
- % p24 secretion Week 3-rb ([2]; NB-DNJ 250 uM): 95%
- % p24 secretion Week 4-rb ([2]; NB-DNJ 250 uM): 88%
- % p24 secretion Week 1 ([2]; NB-DNJ 500 uM): 53%
- % p24 secretion Week 2 ([2]; NB-DNJ 500 uM): 19%
- % p24 secretion Week 3 ([2]; NB-DNJ 500 uM): 8%
- % p24 secretion Week 4 ([2]; NB-DNJ 500 uM): 1%
- % p24 secretion Week 1-rb ([2]; NB-DNJ 500 uM): 67%
- % p24 secretion Week 2-rb ([2]; NB-DNJ 500 uM): 27%
- % p24 secretion Week 3-rb ([2]; NB-DNJ 500 uM): 17%
- % p24 secretion Week 4-rb ([2]; NB-DNJ 500 uM): 1%
- % p24 secretion Week 1 ([2]; NB-DNJ 1000 uM): 55%
- % p24 secretion Week 2 ([2]; NB-DNJ 1000 uM): 10%
- % p24 secretion Week 3 ([2]; NB-DNJ 1000 uM): 3%
- % p24 secretion Week 4 ([2]; NB-DNJ 1000 uM): 0%
- % p24 secretion Week 1-rb ([2]; NB-DNJ 1000 uM): 52%
- % p24 secretion Week 2-rb ([2]; NB-DNJ 1000 uM): 15%
- % p24 secretion Week 3-rb ([2]; NB-DNJ 1000 uM): 6%
- % p24 secretion Week 4-rb ([2]; NB-DNJ 1000 uM): 1%
- reduction in viral secretion [3, 6]: 75%
- IC50 [3, 5]: 250 µM
- IC90 [3, 5]: 375 µM
- % p24 secretion Week 1 ([3]; NB-DNJ 250 uM): 98%
- % p24 secretion Week 2 ([3]; NB-DNJ 250 uM): 79%
- % p24 secretion Week 3 ([3]; NB-DNJ 250 uM): 54%
- % p24 secretion Week 4 ([3]; NB-DNJ 250 uM): 59%
- % p24 secretion Week 1-rb ([3]; NB-DNJ 250 uM): 81%
- % p24 secretion Week 2-rb ([3]; NB-DNJ 250 uM): 70%
- % p24 secretion Week 3-rb ([3]; NB-DNJ 250 uM): 73%
- % p24 secretion Week 4-rb ([3]; NB-DNJ 250 uM): 66%
- % p24 secretion Week 1 ([3]; NB-DNJ 500 uM): 36%
- % p24 secretion Week 2 ([3]; NB-DNJ 500 uM): 16%
- % p24 secretion Week 3 ([3]; NB-DNJ 500 uM): 2%
- % p24 secretion Week 4 ([3]; NB-DNJ 500 uM): 0%
- % p24 secretion Week 1-rb ([3]; NB-DNJ 500 uM): 35%
- % p24 secretion Week 2-rb ([3]; NB-DNJ 500 uM): 8%
- % p24 secretion Week 3-rb ([3]; NB-DNJ 500 uM): 0%
- % p24 secretion Week 4-rb ([3]; NB-DNJ 500 uM): 0%
- % p24 secretion Week 1 ([3]; NB-DNJ 1000 uM): 25%
- % p24 secretion Week 2 ([3]; NB-DNJ 1000 uM): 1%
- % p24 secretion Week 3 ([3]; NB-DNJ 1000 uM): 1%
- % p24 secretion Week 4 ([3]; NB-DNJ 1000 uM): 0%
- % p24 secretion Week 1-rb ([3]; NB-DNJ 1000 uM): 21%
- % p24 secretion Week 2-rb ([3]; NB-DNJ 1000 uM): 0%
- % p24 secretion Week 3-rb ([3]; NB-DNJ 1000 uM): 0%
- % p24 secretion Week 4-rb ([3]; NB-DNJ 1000 uM): 0%
- % p24 secretion Week 1 ([4]; NB-DNJ 250 uM): 90%
- % p24 secretion Week 2 ([4]; NB-DNJ 250 uM): 83%
- % p24 secretion Week 3 ([4]; NB-DNJ 250 uM): 88%
- % p24 secretion Week 4 ([4]; NB-DNJ 250 uM): 77%
- % p24 secretion Week 1-rb ([4]; NB-DNJ 250 uM): 110%
- % p24 secretion Week 2-rb ([4]; NB-DNJ 250 uM): 101%
- % p24 secretion Week 3-rb ([4]; NB-DNJ 250 uM): 91%
- % p24 secretion Week 4-rb ([4]; NB-DNJ 250 uM): 85%
- % p24 secretion Week 1 ([4]; NB-DNJ 500 uM): 85%
- % p24 secretion Week 2 ([4]; NB-DNJ 500 uM): 56%
- % p24 secretion Week 3 ([4]; NB-DNJ 500 uM): 23%
- % p24 secretion Week 4 ([4]; NB-DNJ 500 uM): 8%
- % p24 secretion Week 1-rb ([4]; NB-DNJ 500 uM): 98%
- % p24 secretion Week 2-rb ([4]; NB-DNJ 500 uM): 62%
- % p24 secretion Week 3-rb ([4]; NB-DNJ 500 uM): 27%
- % p24 secretion Week 4-rb ([4]; NB-DNJ 500 uM): 19%
- % p24 secretion Week 1 ([4]; NB-DNJ 1000 uM): 61%
- % p24 secretion Week 2 ([4]; NB-DNJ 1000 uM): 21%
- % p24 secretion Week 3 ([4]; NB-DNJ 1000 uM): 5%
- % p24 secretion Week 4 ([4]; NB-DNJ 1000 uM): 0%
- % p24 secretion Week 1-rb ([4]; NB-DNJ 1000 uM): 72%
- % p24 secretion Week 2-rb ([4]; NB-DNJ 1000 uM): 19%
- % p24 secretion Week 3-rb ([4]; NB-DNJ 1000 uM): 3%
- % p24 secretion Week 4-rb ([4]; NB-DNJ 1000 uM): 0%
